Test results reported in patent publication EP2604596A1, “Polymorphs of imatinib” (priority 2011, dated 2013).

Assay: Non-hygroscopicity test (storage in stability chambers, water content)
Type: physicochemical
Conditions: mesylate; for Water Content after 3 months (%): 40°C at humidity of 75%, for 3 months; for Initial Water Content (%): before storage
Experimental: In the present invention, samples of obtained crystalline forms are stored […] in stability chambers under following conditions of 40°C and humidity of 75%, for 3 months to support non-hygroscopic nature of novel forms of imatinib mesylate.
Non-hygroscopicity test results are listed below in table 1.

Water Content after 3 months (%) | Initial Water Content (%) | Structure (SMILES)
0.50 | 0.40 | CS(=O)(=O)O.Cc1ccc(NC(=O)c2ccc(CN3CCN(C)CC3)cc2)cc1Nc1nccc(-c2cccnc2)n1 [Polymorph Y sample, 4-[(4-Methyl-1-piperazinyl)methyl]-N-[4-methyl-3-[[4-(3-pyridinyl)-2-pyrimidinyl]amino]phenyl]-benzamide mesylate]
0.48 | 0.37 | CS(=O)(=O)O.Cc1ccc(NC(=O)c2ccc(CN3CCN(C)CC3)cc2)cc1Nc1nccc(-c2cccnc2)n1 [Polymorph B sample, 4-[(4-Methyl-1-piperazinyl)methyl]-N-[4-methyl-3-[[4-(3-pyridinyl)-2-pyrimidinyl]amino]phenyl]-benzamide mesylate]
0.60 | 0.34 | CS(=O)(=O)O.Cc1ccc(NC(=O)c2ccc(CN3CCN(C)CC3)cc2)cc1Nc1nccc(-c2cccnc2)n1 [Polymorph β reference sample, 4-[(4-Methyl-1-piperazinyl)methyl]-N-[4-methyl-3-[[4-(3-pyridinyl)-2-pyrimidinyl]amino]phenyl]-benzamide mesylate, reference compound]
0.48 | 0.38 | CS(=O)(=O)O.Cc1ccc(NC(=O)c2ccc(CN3CCN(C)CC3)cc2)cc1Nc1nccc(-c2cccnc2)n1 [Polymorph M sample, 4-[(4-Methyl-1-piperazinyl)methyl]-N-[4-methyl-3-[[4-(3-pyridinyl)-2-pyrimidinyl]amino]phenyl]-benzamide mesylate]
0.50 | 0.42 | CS(=O)(=O)O.Cc1ccc(NC(=O)c2ccc(CN3CCN(C)CC3)cc2)cc1Nc1nccc(-c2cccnc2)n1 [Polymorph P sample, 4-[(4-Methyl-1-piperazinyl)methyl]-N-[4-methyl-3-[[4-(3-pyridinyl)-2-pyrimidinyl]amino]phenyl]-benzamide mesylate]
